Here are results for six molecules from paper PMC12408683 (Archives of Toxicology, 2025).

Details of series [1]: method as in Carlsson et al. 2022. The following applies: ref Carlsson et al. 2022; cited from earlier work.
On the set-up of series [2]: method as in Carlsson et al. 2022. Conditions: concentrations below 25 µM; ref Carlsson et al. 2022; cited from earlier work.
In series [3] the test system is human liver biopsies. Also noted: method as in Herrmann et al. 2013. The following applies: ref Herrmann et al. 2013; cited from earlier work.
The test system of series [4] is HepG2-CYP1A2 cells. The following applies: positive control. How it is done: The CBMN assay was performed according to the OECD test guideline #487. Therefore, 2 × 10^5 cells were seeded in 3.5 cm dishes and allowed to adhere for 24 h. […] After the 24 h treatment, the medium was discarded and the cells were incubated with fresh medium, containing 6 µg/mL cytochalasin B as cytokinesis inhibitor. The cells were then left to grow for 72 h, allowing for 1.5–2 × cell cycles. Subsequently, the cells were rinsed with PBS and fixed with ice-cold methanol for 10 min at –20 °C. Cells were washed and embedded with Vectashield® containing DAPI (Vector Labs, Burlingame, CA, USA). The samples were analysed with a Zeiss Axio Observer 7 microscope equipped with an Axiocam 305 mono and a 63 × oil immersion objective (plan-apochromat 63x/1.40 DIC M27) using ZEN Software 3.2. 500 binucleated cells per sample were analysed for micronuclei formation.
As benchmark response (BMR) for all concentration–response curves (adducts, micronuclei), a 2.0-fold increase vs. solvent control was used (BMC100, critical effect size = 1). The determined BMC100 and the corresponding upper and lower boundary (BMCU and BMCL, respectively) of the 90% confidence interval (CI) were used for potency comparison.

Series [5] relates to calf thymus DNA. Also on record: method as in Bergau et al. 2021. The following applies: ref Bergau et al. 2021; cited from earlier work.
The subject of series [6] is HepG2 cells. As to the kind of experiment: Resazurin reduction assay (cytotoxicity) in HepG2 cells. The following applies: positive control 10 µM, time-dependent. On the technique in general: The colour change of resazurin is a common sign of viable cells or microbes.
Series [7] has as its system HepG2-CYP1A2 cells. As to the kind of experiment: Alkaline comet assay (DNA strand breaks) in HepG2-CYP1A2 cells. Conditions: positive control, 200 µM, 20 min. How it is done: (§1) As a positive control, tBuOOH (20 min, 200 µM) was used. Subsequently, the alkaline comet assay was performed to quantify DNA strand breaks as previously described (Haas et al. [2023b]). Per sample, at least 50 comets were counted with Comet IV software (Instem, Staffordshire, UK) using a Zeiss Axio Observer 7 microscope equipped with an Axiocam 305 mono and ZEN 3.2 software (Carl Zeiss, Jena, Germany).

Series [8] deals with HepG2 cells. Conditions: positive control, 200 µM, 20 min. How it is done: as §1

As to `C=CC(O)c1ccc(OC)c(OC)c1` (centres unmarked) [1′OH-ME, 1′-hydroxymethyleugenol], the “alkaline comet assay outcome” value in series [1] is listed as “negative”. For the same molecule, the cytotoxicity result in series [2] is “not cytotoxic”.
With `C=CCc1ccc(OC)c(OC)c1` [ME, methyleugenol], in series [3], the “ME-derived DNA adducts, median” value is given as 13 adducts/10^8 nts.
Consider `CO[C@@]12[C@H](COC(N)=O)C3=C(C(=O)C(C)=C(N)C3=O)N1C[C@@H]1N[C@@H]12` [MMC, mitomycin C, reference compound], for which the “MN (CBMN)” value in series [4] is given as “robust increase in MN”.
Take `C/C=C/c1ccc(OC)cc1` [anethole]: in series [5], the “E3′-N2-dG adduct levels vs equimolar ES concentrations” value is “several times lower”.
Consider `COc1cc([C@@H]2c3cc4c(cc3[C@@H](O[C@@H]3O[C@@H]5CO[C@@H](C)O[C@H]5[C@H](O)[C@H]3O)[C@H]3COC(=O)[C@H]23)OCO4)cc(OC)c1O` [etoposide, reference compound], for which, in series [6], the “cytotoxicity (resazurin reduction assay)” value is “cytotoxic”.
As for `CC(C)(C)OO` [tBuOOH, tert-butyl hydroperoxide, reference compound], the “DNA strand breaks (alkaline comet assay)” value in series [7] and in series [8] was “strong DNA strand break induction” in each case.
